From US12201609B2, “Saroglitazar for the treatment of hepatocellular carcinoma” (CADILA HEALTHCARE LIMITED, priority 2018, dated 2025)

Test system: Hepatocellular Carcinoma Induced by Intraperitoneal Injection of Diethylnitrosamine in C57/BL6 Mice
Assay: Saroglitazar efficacy in hepatocellular carcinoma induced by diethylnitrosamine (DEN) injection and CDAHFD feeding in mice
Format: in vivo, C57BL/6 male mice
Details: CDAHFD-DEN mice; for Serum ALT levels, % Change Vs Disease Control / Serum AST levels, % Change Vs Disease Control / Serum TG levels, % Change Vs Disease Control / % animals showing liver tumor / No. of animal with tumor / No. of liver tumors/animal / Serum ALT levels / Serum AST levels / Serum TG levels: p.o.; for % animals showing liver tumor / No. of animal with tumor / No. of liver tumors/animal: 27 weeks treatment; for Serum ALT levels / Serum AST levels / Serum TG levels: at termination
Text: Evaluation of Saroglitazar's efficacy in Hepatocellular Carcinoma Induced by Intraperitoneal Injection of Diethylnitrosamine in C57/BL6 Mice.
In this study, hepatocellular carcinoma (HCC) was induced in C57BL/6 male mice first by injecting them with diethylnitrosamine (DEN) and by then feeding them a choline-deficient, L-amino acid-defined, high-fat diet (CDAHFD); Developed an experimental mouse model of hepatocellular carcinoma (Ohno T, Shimizu M, Shirakami Y, Baba A, Kochi T, Kubota M, et al. (2015) Metformin Suppresses Diethylnitrosamine-Induced Liver Tumorigenesis in Obese and Diabetic C57BL/KsJ−+Leprdb/+Leprdb Mice. PLoS ONE 10(4): e0124081; Journal of Cancer, 2018; 9(5): 914-922;)
The objective of this study was to evaluate the efficacy of Saroglitazar for prevention and or regression of hepatocellular carcinoma in mice after intraperitoneal injection of diethylnitrosamine and feeding of Choline deficient, L-amino acid-defined, High-fat Diet.
HCC was induced in C57BL/6 male mice by feeding them a choline-deficient, L-amino acid-defined, high-fat diet (CDAHFD) and administration of diethylnitrosamine (DEN). DEN was administered one-time by intraperitoneal route at the age of 3-weeks. Treatment with Saroglitazar (1 and 3 mg/kg) was initiated after 8 weeks of CDAHFD initiation and continued for 27 weeks.
After 8 weeks of CDAHFD diet (or DEN administration) blood collection was performed for serum ALT, AST and on the basis serum ALT level animals were divided in to following groups: • 1. Control for CDAHFD+Vehicle (n=10)—Normal Control • 2. CDAHFD—Saline+Vehicle (n=10)—CDAHFD Control • 3. CDAHFD—DEN+Vehicle (n=15)—Disease Control • 4. CDAHFD—DEN+Saroglitazar 1 mg/kg, p.o. (n=15)—D-Saro (1 mg/kg, p.o.) • 5. CDAHFD—DEN+Saroglitazar 3 mg/kg, p.o. (n=15)—D-Saro (3 mg/kg, p.o.)
Test compound formulation was prepared in Tween 80 and 0.5% sodium CMC in ratio of 0.5:99.5 in such that volume of administration will be 10 ml/kg.
Treatment along with diet was continued for 27 weeks.
In this study almost 50% animals from each group were terminated at 31 weeks after DEN injection and remaining 50% animals were sacrificed at 35 weeks after DEN administration (i.e. completion of 27 weeks of treatment). At termination, blood collection was performed for serum parameters like ALT, AST and TG. Animals were sacrificed; spleen and liver will be collected and weighed. Liver will be observed for presence of tumors, number of tumors and size of tumors. Liver was collected for liver biochemistry, histology

CCO[C@@H](Cc1ccc(OCCn2c(C)ccc2-c2ccc(SC)cc2)cc1)C(=O)O [Saroglitazar]
prevention of hepatic carcinogenesis (3 mg/kg dose): 100% | tumor in liver (in words) (3 mg/kg dose): did not show any tumor in liver | reduction in serum ALT (3 mg/kg, vs disease control): 40% | reduction in serum AST (3 mg/kg, vs disease control): 44% | effect on liver tumor incidence (in words) (1 and 3 mg/kg): dose dependent effect on liver tumor incidence | serum triglycerides levels (in words) (1 and 3 mg/kg): dose dependent reduction | Serum ALT levels, % Change Vs Disease Control (Saroglitazar 1 mg/kg): −33.6% | Serum AST levels, % Change Vs Disease Control (Saroglitazar 1 mg/kg): −36.2% | Serum TG levels, % Change Vs Disease Control (Saroglitazar 1 mg/kg): −38.4% | % animals showing liver tumor (Saroglitazar 1 mg/kg): 20.0% | No. of animal with tumor (Saroglitazar 1 mg/kg): 3 out of 15 | No. of liver tumors/animal (Saroglitazar 1 mg/kg): 0.3 | Serum ALT levels (Saroglitazar 1 mg/kg): 232.3 U/L | Serum AST levels (Saroglitazar 1 mg/kg): 231.1 U/L | Serum TG levels (Saroglitazar 1 mg/kg): 42.7 mg/dL | Serum ALT levels, % Change Vs Disease Control (Saroglitazar 3 mg/kg): −39.9% | Serum AST levels, % Change Vs Disease Control (Saroglitazar 3 mg/kg): −43.9% | Serum TG levels, % Change Vs Disease Control (Saroglitazar 3 mg/kg): −54.6% | % animals showing liver tumor (Saroglitazar 3 mg/kg): 0.0% | No. of animal with tumor (Saroglitazar 3 mg/kg): 0 out of 15 | No. of liver tumors/animal (Saroglitazar 3 mg/kg): 0.0 | Serum ALT levels (Saroglitazar 3 mg/kg): 210.5 U/L | Serum AST levels (Saroglitazar 3 mg/kg): 203.0 U/L | Serum TG levels (Saroglitazar 3 mg/kg): 31.5 mg/dL | liver injury markers, serum ALT and AST (in words) (Saroglitazar treatment): significant reduction
